ChEMBL document CHEMBL3875147 (Eur J Med Chem, 2016)
Values after ≈ are worked out from the molar mass of the structure shown.

Experiments:
[1] = Hemolytic activity in human RBC at 100 uM measured after 1 hr by UV-vis absorbance method relative to control; assay type: ADME, cell-based, Erythrocyte; conditions: red blood cells (RBC), read-out: Activity
Pseudomonas aeruginosa [2] = assay: Antibacterial activity against Pseudomonas aeruginosa ATCC 27853 incubated for 18 to 24 hrs by micro-dilution method; assay type: functional
[3] = system: Staphylococcus epidermidis; assay: Antibacterial activity against Staphylococcus epidermidis ATCC 35984 incubated for 18 to 24 hrs by micro-dilution method; assay type: functional; conditions: RP62A
Plesiomonas shigelloides [4] = assay: Antibacterial activity against Plesiomonas shigelloides ATCC 14029 incubated for 18 to 24 hrs by micro-dilution method; assay type: functional
Staphylococcus aureus [5] = assay: Antibacterial activity against Staphylococcus aureus ATCC 25923 incubated for 18 to 24 hrs by micro-dilution method; assay type: functional
[6] = system: Sphingomonas paucimobilis; assay: Antibacterial activity against Sphingomonas paucimobilis MTCC 6362 incubated for 18 to 24 hrs by micro-dilution method; assay type: functional
Pseudomonas aeruginosa [7] = assay: Antibacterial activity against clinical isolate of Pseudomonas aeruginosa incubated for 18 to 24 hrs by micro-dilution method; assay type: functional
Salmonella typhi = assay: Antibacterial activity against clinical isolate of Salmonella typhi incubated for 18 to 24 hrs by micro-dilution method; assay type: functional, Salmonella enterica subsp. enterica serovar Typhi; conditions: Salmonella enterica
Enterococcus faecalis [8] = assay: Antibacterial activity against clinical isolate of Enterococcus faecalis incubated for 18 to 24 hrs by micro-dilution method; assay type: functional
[9] = Antibacterial activity against Aeromonas hydrophila ATCC 7966 incubated for 18 to 24 hrs by micro-dilution method; assay type: functional, Aeromonas hydrophila subsp. hydrophila ATCC 7966
Escherichia coli [10] = assay: Antibacterial activity against Escherichia coli ATCC 25922 incubated for 18 to 24 hrs by micro-dilution method; assay type: functional
Salmonella typhimurium = assay: Antibacterial activity against clinical isolate of Salmonella typhimurium incubated for 18 to 24 hrs by micro-dilution method; assay type: functional, Salmonella enterica subsp. enterica serovar Typhimurium; conditions: Salmonella enterica
Enterococcus faecalis [11] = assay: Potency index, ratio of MIC for ciprofloxacin to MIC for test compound for antibacterial activity against clinical isolate of Enterococcus faecalis; assay type: functional
Staphylococcus aureus [12] = assay: Potency index, ratio of MIC for ciprofloxacin to MIC for test compound for antibacterial activity against Staphylococcus aureus ATCC 25923; assay type: functional
Escherichia coli [13] = assay: Potency index, ratio of MIC for ciprofloxacin to MIC for test compound for antibacterial activity against Escherichia coli ATCC 25922; assay type: functional
[14] = system: Staphylococcus epidermidis; assay: Potency index, ratio of MIC for ciprofloxacin to MIC for test compound for antibacterial activity against Staphylococcus epidermidis ATCC 35984; assay type: functional, RP62A
Plesiomonas shigelloides [15] = assay: Potency index, ratio of MIC for ciprofloxacin to MIC for test compound for antibacterial activity against Plesiomonas shigelloides ATCC 14029; assay type: functional

SMILES: O=C(OCc1cn(-c2ccccc2)nn1)c1cn(C2CC2)c2cc(N3CCN(Cc4cn(-c5ccccc5)nn4)CC3)c(F)cc2c1=O
- hemolysis at 1 h, 100 µM [1]: 4.65%
- MIC (Pseudomonas aeruginosa [2]): > 155 µM
- MIC [3]: 38.7 µM (≈ 25 µg/mL)
- MIC (Plesiomonas shigelloides [4]): 9.68 µM (≈ 6.25 µg/mL)
- MIC (Staphylococcus aureus [5]): 38.7 µM (≈ 25 µg/mL)
- MIC [6]: > 155 µM
- MIC (Pseudomonas aeruginosa [7]): > 155 µM
- MIC (Salmonella typhi): > 155 µM
- MIC (Enterococcus faecalis [8]): > 155 µM
- MIC [9]: > 155 µM
- MIC (Escherichia coli [10]): > 155 µM
- MIC (Salmonella typhimurium): > 155 µM

SMILES: CC(=O)c1ccc(-n2cc(COC(=O)c3cn(C4CC4)c4cc(N5CCN(Cc6cn(-c7ccc(C(C)=O)cc7)nn6)CC5)c(F)cc4c3=O)nn2)cc1
- hemolysis at 1 h, 100 µM [1]: 8.05%
- MIC (Pseudomonas aeruginosa [2]): 4.28 µM (≈ 3.12 µg/mL)
- MIC [3]: 2.14 µM (≈ 1.56 µg/mL)
- MIC (Plesiomonas shigelloides [4]): 2.14 µM (≈ 1.56 µg/mL)
- MIC (Staphylococcus aureus [5]): 2.14 µM (≈ 1.56 µg/mL)
- MIC [6]: 17.1 µM (≈ 12.5 µg/mL)
- MIC (Pseudomonas aeruginosa [7]): 8.56 µM (≈ 6.25 µg/mL)
- MIC (Enterococcus faecalis [8]): 4.28 µM (≈ 3.12 µg/mL)
- MIC [9]: 8.56 µM (≈ 6.25 µg/mL)
- MIC (Escherichia coli [10]): 2.14 µM (≈ 1.56 µg/mL)
- MIC (Salmonella typhimurium): 8.56 µM (≈ 6.25 µg/mL)

SMILES: O=C(OCc1cn(-c2ccc([N+](=O)[O-])cc2)nn1)c1cn(C2CC2)c2cc(N3CCN(Cc4cn(-c5ccc([N+](=O)[O-])cc5)nn4)CC3)c(F)cc2c1=O
- hemolysis at 1 h, 100 µM [1]: 5.61%
- MIC (Pseudomonas aeruginosa [2]): 8.5 µM (≈ 6.25 µg/mL)
- MIC [3]: 1.06 µM (≈ 0.78 µg/mL)
- MIC (Plesiomonas shigelloides [4]): 4.25 µM (≈ 3.13 µg/mL)
- MIC (Staphylococcus aureus [5]): 4.25 µM (≈ 3.13 µg/mL)
- MIC [6]: 17 µM (≈ 12.5 µg/mL)
- MIC (Pseudomonas aeruginosa [7]): 17 µM (≈ 12.5 µg/mL)
- MIC (Enterococcus faecalis [8]): 8.5 µM (≈ 6.25 µg/mL)
- MIC [9]: 17 µM (≈ 12.5 µg/mL)
- MIC (Escherichia coli [10]): 4.25 µM (≈ 3.13 µg/mL)
- MIC (Salmonella typhimurium): 17 µM (≈ 12.5 µg/mL)

SMILES: O=C(OCc1cn(-c2ccccc2Cl)nn1)c1cn(C2CC2)c2cc(N3CCN(Cc4cn(-c5ccccc5Cl)nn4)CC3)c(F)cc2c1=O
- hemolysis at 1 h, 100 µM [1]: 5.85%
- MIC (Pseudomonas aeruginosa [2]): 8.75 µM (≈ 6.25 µg/mL)
- MIC [3]: 1.09 µM (≈ 0.779 µg/mL)
- MIC (Plesiomonas shigelloides [4]): 2.19 µM (≈ 1.56 µg/mL)
- MIC (Staphylococcus aureus [5]): 8.75 µM (≈ 6.25 µg/mL)
- MIC [6]: 35 µM (≈ 25 µg/mL)
- MIC (Pseudomonas aeruginosa [7]): 35 µM (≈ 25 µg/mL)
- MIC (Salmonella typhi): 140 µM (≈ 100 µg/mL)
- MIC (Enterococcus faecalis [8]): 35 µM (≈ 25 µg/mL)
- MIC [9]: 35 µM (≈ 25 µg/mL)
- MIC (Escherichia coli [10]): 2.19 µM (≈ 1.56 µg/mL)
- MIC (Salmonella typhimurium): 17.5 µM (≈ 12.5 µg/mL)

SMILES: O=C(OCc1cn(-c2ccc(Cl)cc2)nn1)c1cn(C2CC2)c2cc(N3CCN(Cc4cn(-c5ccc(Cl)cc5)nn4)CC3)c(F)cc2c1=O
- hemolysis at 1 h, 100 µM [1]: 4.73%
- MIC (Pseudomonas aeruginosa [2]): 4.37 µM (≈ 3.12 µg/mL)
- MIC [3]: 35 µM (≈ 25 µg/mL)
- MIC (Plesiomonas shigelloides [4]): 8.75 µM (≈ 6.25 µg/mL)
- MIC (Staphylococcus aureus [5]): 2.19 µM (≈ 1.56 µg/mL)
- MIC [6]: 35 µM (≈ 25 µg/mL)
- MIC (Pseudomonas aeruginosa [7]): 8.75 µM (≈ 6.25 µg/mL)
- MIC (Enterococcus faecalis [8]): 2.19 µM (≈ 1.56 µg/mL)
- MIC [9]: 35 µM (≈ 25 µg/mL)
- MIC (Escherichia coli [10]): 4.37 µM (≈ 3.12 µg/mL)
- MIC (Salmonella typhimurium): 4.37 µM (≈ 3.12 µg/mL)

SMILES: O=C(OCc1cn(-c2ccc(F)cc2F)nn1)c1cn(C2CC2)c2cc(N3CCN(Cc4cn(-c5ccc(F)cc5F)nn4)CC3)c(F)cc2c1=O
- hemolysis at 1 h, 100 µM [1]: 9.5%
- MIC (Pseudomonas aeruginosa [2]): 8.71 µM (≈ 6.25 µg/mL)
- MIC [3]: 8.71 µM (≈ 6.25 µg/mL)
- MIC (Plesiomonas shigelloides [4]): 69.7 µM (≈ 50 µg/mL)
- MIC (Staphylococcus aureus [5]): 4.35 µM (≈ 3.12 µg/mL)
- MIC [6]: 34.8 µM (≈ 25 µg/mL)
- MIC (Pseudomonas aeruginosa [7]): 17.4 µM (≈ 12.5 µg/mL)
- MIC (Salmonella typhi): 4.35 µM (≈ 3.12 µg/mL)
- MIC (Enterococcus faecalis [8]): 17.4 µM (≈ 12.5 µg/mL)
- MIC [9]: 69.7 µM (≈ 50 µg/mL)
- MIC (Escherichia coli [10]): 8.71 µM (≈ 6.25 µg/mL)
- MIC (Salmonella typhimurium): 34.8 µM (≈ 25 µg/mL)

SMILES: O=C(OCc1cn(-c2ccc(OC(F)(F)F)cc2)nn1)c1cn(C2CC2)c2cc(N3CCN(Cc4cn(-c5ccc(OC(F)(F)F)cc5)nn4)CC3)c(F)cc2c1=O
- hemolysis at 1 h, 100 µM [1]: 9.75%
- MIC (Pseudomonas aeruginosa [2]): 3.84 µM (≈ 3.12 µg/mL)
- MIC [3]: 1.92 µM (≈ 1.56 µg/mL)
- MIC (Plesiomonas shigelloides [4]): 15.4 µM (≈ 12.5 µg/mL)
- MIC (Staphylococcus aureus [5]): 3.84 µM (≈ 3.12 µg/mL)
- MIC [6]: 15.4 µM (≈ 12.5 µg/mL)
- MIC (Pseudomonas aeruginosa [7]): 15.4 µM (≈ 12.5 µg/mL)
- MIC (Salmonella typhi): 30.7 µM (≈ 25 µg/mL)
- MIC (Enterococcus faecalis [8]): 0.96 µM (≈ 0.781 µg/mL)
- MIC [9]: 3.84 µM (≈ 3.12 µg/mL)
- Ratio (Enterococcus faecalis [11]): 19
- MIC (Escherichia coli [10]): 3.84 µM (≈ 3.12 µg/mL)
- MIC (Salmonella typhimurium): 3.84 µM (≈ 3.12 µg/mL)

SMILES: Cc1ccc(-n2cc(COC(=O)c3cn(C4CC4)c4cc(N5CCN(Cc6cn(-c7ccc(C)cc7Cl)nn6)CC5)c(F)cc4c3=O)nn2)c(Cl)c1
- hemolysis at 1 h, 100 µM [1]: 5.85%
- MIC (Pseudomonas aeruginosa [2]): 16.8 µM (≈ 12.5 µg/mL)
- MIC [3]: 8.42 µM (≈ 6.25 µg/mL)
- MIC (Plesiomonas shigelloides [4]): 33.7 µM (≈ 25 µg/mL)
- MIC (Staphylococcus aureus [5]): 4.21 µM (≈ 3.13 µg/mL)
- MIC [6]: 67.3 µM (≈ 50 µg/mL)
- MIC (Pseudomonas aeruginosa [7]): 16.8 µM (≈ 12.5 µg/mL)
- MIC (Salmonella typhi): > 135 µM
- MIC (Enterococcus faecalis [8]): 33.7 µM (≈ 25 µg/mL)
- MIC [9]: 67.3 µM (≈ 50 µg/mL)
- MIC (Escherichia coli [10]): 67.3 µM (≈ 50 µg/mL)
- MIC (Salmonella typhimurium): 67.3 µM (≈ 50 µg/mL)

SMILES: O=C(OCc1cn(-c2cccc(Cl)c2Cl)nn1)c1cn(C2CC2)c2cc(N3CCN(Cc4cn(-c5cccc(Cl)c5Cl)nn4)CC3)c(F)cc2c1=O
- hemolysis at 1 h, 100 µM [1]: 6.58%
- MIC (Pseudomonas aeruginosa [2]): 7.98 µM (≈ 6.25 µg/mL)
- MIC [3]: 3.99 µM (≈ 3.13 µg/mL)
- MIC (Plesiomonas shigelloides [4]): 7.98 µM (≈ 6.25 µg/mL)
- MIC (Staphylococcus aureus [5]): 3.99 µM (≈ 3.13 µg/mL)
- MIC [6]: 15.9 µM (≈ 12.5 µg/mL)
- MIC (Pseudomonas aeruginosa [7]): 15.9 µM (≈ 12.5 µg/mL)
- MIC (Salmonella typhi): 31.9 µM (≈ 25 µg/mL)
- MIC (Enterococcus faecalis [8]): 15.9 µM (≈ 12.5 µg/mL)
- MIC [9]: 31.9 µM (≈ 25 µg/mL)
- MIC (Escherichia coli [10]): 7.98 µM (≈ 6.25 µg/mL)
- MIC (Salmonella typhimurium): 15.9 µM (≈ 12.5 µg/mL)

SMILES: O=C(OCc1cn(-c2cccc(Cl)c2)nn1)c1cn(C2CC2)c2cc(N3CCN(Cc4cn(-c5cccc(Cl)c5)nn4)CC3)c(F)cc2c1=O
- hemolysis at 1 h, 100 µM [1]: 24.2%
- Ratio (Staphylococcus aureus [12]): 8 - 17
- MIC (Pseudomonas aeruginosa [2]): 17.5 µM (≈ 12.5 µg/mL)
- MIC [3]: 1.09 µM (≈ 0.779 µg/mL)
- MIC (Plesiomonas shigelloides [4]): 1.09 µM (≈ 0.779 µg/mL)
- Ratio (Escherichia coli [13]): 8 - 17
- MIC (Staphylococcus aureus [5]): 1.09 µM (≈ 0.779 µg/mL)
- MIC [6]: 17.5 µM (≈ 12.5 µg/mL)
- Ratio [14]: 8 - 17
- MIC (Pseudomonas aeruginosa [7]): 35 µM (≈ 25 µg/mL)
- MIC (Salmonella typhi): 140 µM (≈ 100 µg/mL)
- MIC (Enterococcus faecalis [8]): 8.75 µM (≈ 6.25 µg/mL)
- Ratio (Plesiomonas shigelloides [15]): 8 - 17
- MIC [9]: 35 µM (≈ 25 µg/mL)
- MIC (Escherichia coli [10]): 1.09 µM (≈ 0.779 µg/mL)
- MIC (Salmonella typhimurium): 17.5 µM (≈ 12.5 µg/mL)
